Laboratory results published in US20160208330A1, “IDENTIFYING MARKERS OF CALORIC RESTRICTION AND CALORIC RESTRICTION MIMETICS” (NSE Products, Inc., priority 2011, published 2016).

System: genes listed in Table 6 (CR marker panel), white adipose tissue
Experiment: Testing ingredients for mimicry of caloric restriction: feeding study, RT-qPCR of the Table 6 gene panel in white adipose tissue, fold change as percentage of the fold change in the CR group
Format: in vivo, C57BL/6J mice
Parameters: key to Avg. CRMI: points per gene: 11-20% mimicry = 1, 21-30% = 2...; opposite effect negative
Conditions: for Avg. CRMI: CR Mimetic Index, points per gene from mimicry score plus five points for significance; for Avg. mimicry: average over significantly changed genes; for CMII: mimetic index = average mimicry (fraction of CR) x number of significantly changed genes
Text: C57BL/6J mice were purchased from Jackson Laboratories at 6 weeks of age and maintained as described previously in Barger J L, et al. (2008) A Low Dose of Dietary Resveratrol Partially Mimics Caloric Restriction and Retards Aging Parameters in Mice. PLoS ONE 3(6): e2264 (http://dx.doi.org/10.1371/journal.pone.0002264). Briefly, mice were individually housed in shoebox cages and provided with 24 grams (˜84 kcal) of AIN-93M diet per week (7 grams on Monday and Wednesday and 10 grams on Friday). Starting at 8 weeks of age and continuing until 22 weeks of age, mice were either a) maintained on the AIN-93M diet (control group), b) fed a Calorie Restricted (CR) diet providing 63 kcal/week of a modified AIN93M from 8-16 weeks of age and then further reduced to a diet providing 49 kcal/week of a modified AIN93M from 16-22 weeks of age; or c) were assigned to an AIN93M diet supplemented with one of the following test ingredients: 1) bezafibrate at a dose of 5,000 mg/kg diet; 2) metformin at a dose of 1,909 mg/kg diet; 3) L-carnitine at a dose of 1,800 mg/kg diet; 4) blood orange extract at a dose of 18 mg/kg of body weight; 5) purple corn extract at a dose of 22 mg/kg of body weight; 6) resveratrol at a dose of 30 mg/kg of body weight; and 7) quercetin at a dose of 17.6 mg/kg of body weight. At 22 weeks of age, tissues were collected from the mice, flash-frozen in liquid nitrogen and stored at −80° C. for later analysis.
In order to screen the ingredients for their ability to mimic CR, quantitative real-time PCR (RT-qPCR) analysis was performed on RNA isolated from white adipose tissue from all groups of mice. Experimental methods and data analysis for RT-qPCR experiments have been published previously in Barger, J L et al., (2008) Short-term consumption of a resveratrol-containing nutraceutical mixture mimics gene expression of long-term caloric restriction in mouse heart, Exp. Gerontology 43(9):859 (http://dx.doi.org/10.1016/j.exger.2008.06.013). Briefly, the magnitude of change in gene expression was determined for each of the genes listed in Table 6 for the CR and treatment groups compared to the control animals. Two-tailed t-tests (assuming equal variance) were used to determine if the change in expression for individual genes was statistically significant. The magnitude of the change in expression (“fold change”) values were log2-adjusted to fit normality assumptions for statistical analyses.
CR mimicry was expressed as the fold change observed in each gene for the test group as a percentage of the fold change observed for that gene in the CR group.
The ingredients tested were based on their mimetic effect across the gene panel.
Another ranking approach was used to reflect effects across all genes. A CR Mimetic Index (CRMI) was calculated per gene for each ingredient by assigning each a number of points based on its mimicry score for each gene. Positive points were given for positive mimicry values (11 to 20%=1 point, 21 to 30%=2 points, 31 to 40%=3 points, and so on). Negative mimicry values (i.e. where the gene expression effect was opposite that observed for CR) received corresponding negative scores (i.e. −11 to −20%=−1 point, −21 to −30%=−2 points, −31 to −40%=[…], and so on). Five points were added for statistical significance of a mimicry value.
In the experimental protocol of Example 2, bezafibrate at 5,000 mg/kg diet was also compared to lower doses (100 and 500 mg/kg).
Mimetic indices were calculated for the 500 mg/kg and 100 mg/kg doses as in Example 2.

[1] = 100 mg/kg diet, white adipose tissue
[2] = 500 mg/kg diet, white adipose tissue
[3] = 5000 mg/kg diet, white adipose tissue
[4] = fold change as percentage of CR fold change, white adipose tissue
[5] = white adipose tissue, RT-qPCR, C57BL/6J mice fed from 8 to 22 weeks of age, ingredient doses, only significantly changed genes shown
[6] = white adipose tissue, Table 6 gene panel, diet supplemented from 8 to 22 weeks of age, doses (bezafibrate 5,000 mg/kg diet)

## CC(C)(Oc1ccc(CCNC(=O)c2ccc(Cl)cc2)cc1)C(=O)O [Bezafibrate, bezafibrate]
[1]
  CR mimicry Acaca: 20%
  CR mimicry Cd68: 58%
  CR mimicry Gpd2: 23%
  CR mimicry Ifi27I2a: 39%
[2]
  CR mimicry Acaca: 23%
  CR mimicry Acss2: 17%
  CR mimicry Gpd2: 31%
  CR mimicry Me1: 18%
  CR mimicry Nampt: 87%
  CR mimicry Parm1: 19%
  CR mimicry Slc2a4: 69%
[3]
  CR mimicry Acaca: 59%
  CR mimicry Acss2: 21%
  CR mimicry Cd68: 58%
  CR mimicry Gpd2: 93%
  CR mimicry Ifi27I2a: 75%
  CR mimicry Me1: 24%
  CR mimicry Nampt: 233%
  CR mimicry Ndufs4: 108%
  CR mimicry Parm1: 47%
  CR mimicry Slc2a4: 113%
  Avg. CRMI: 128
  CMII: 8.3
[4]
  Avg. mimicry: 83%
Bezafibrate 100 mg/kg diet
  Avg. CRMI (CR Mimetic Index, points per gene): 28
  CMII (average mimicry as fraction of CR x number of significantly changed genes): 1.4
  Avg. mimicry: 35%
Bezafibrate 100 mg/kg diet, white adipose tissue gene panel
  No. of genes significantly changed: 4
Bezafibrate 500 mg/kg diet
  Avg. CRMI (CR Mimetic Index, points per gene): 68
  CMII (average mimicry as fraction of CR x number of significantly changed genes): 2.6
  Avg. mimicry: 38%
Bezafibrate 500 mg/kg diet, white adipose tissue gene panel
  No. of genes significantly changed: 7
Bezafibrate 5000 mg/kg diet
  Avg. CRMI (CR Mimetic Index, points per gene): 128
  CMII (average mimicry as fraction of CR x number of significantly changed genes): 8.3
  Avg. mimicry: 83%
Bezafibrate 5000 mg/kg diet, white adipose tissue gene panel
  No. of genes significantly changed: 10
[5]
  CR mimicry, Acaca (fold change as percentage of the fold change in the CR group): 59%
  CR mimicry, Acss2 (fold change as percentage of the fold change in the CR group): 21%
  CR mimicry, Cd68 (fold change as percentage of the fold change in the CR group): 58%
  CR mimicry, Gpd2 (fold change as percentage of the fold change in the CR group): 93%
  CR mimicry, Ifi27I2a (fold change as percentage of the fold change in the CR group): 75%
  CR mimicry, Me1 (fold change as percentage of the fold change in the CR group): 24%
  CR mimicry, Nampt (fold change as percentage of the fold change in the CR group): 233%
  CR mimicry, Ndufs4 (fold change as percentage of the fold change in the CR group): 108%
  CR mimicry, Parm1 (fold change as percentage of the fold change in the CR group): 47%
  CR mimicry, Slc2a4 (fold change as percentage of the fold change in the CR group): 113%
[6]
  No. of genes significantly changed: 10

## C[N+](C)(C)C[C@H](O)CC(=O)[O-] [L-carnitine]
  Avg. CRMI: 55
  CMII: 2.2
[4]
  Avg. mimicry: 31%
[5]
  CR mimicry, Acaca (fold change as percentage of the fold change in the CR group): 5%
  CR mimicry, Gpd2 (fold change as percentage of the fold change in the CR group): 15%
  CR mimicry, Nampt (fold change as percentage of the fold change in the CR group): 84%
  CR mimicry, Ndufs4 (fold change as percentage of the fold change in the CR group): 40%
  CR mimicry, Parm1 (fold change as percentage of the fold change in the CR group): 3%
  CR mimicry, Serpine1 (fold change as percentage of the fold change in the CR group): 52%
  CR mimicry, Slc2a4 (fold change as percentage of the fold change in the CR group): 16%
[6]
  No. of genes significantly changed: 7

## CN(C)C(=N)N=C(N)N [Metformin, metformin]
  Avg. CRMI: 31
  CMII: 0.6
[4]
  Avg. mimicry: 16%
[5]
  CR mimicry, Acaca (fold change as percentage of the fold change in the CR group): 17%
  CR mimicry, Gpd2 (fold change as percentage of the fold change in the CR group): 27%
  CR mimicry, Me1 (fold change as percentage of the fold change in the CR group): 11%
  CR mimicry, Parm1 (fold change as percentage of the fold change in the CR group): 10%
[6]
  No. of genes significantly changed: 4

## O=c1c(O)c(-c2ccc(O)c(O)c2)oc2cc(O)cc(O)c12 [Quercetin, quercetin]
  Avg. CRMI: 17
  CMII: 0.4
[4]
  Avg. mimicry: 20%
Ranking by mimetic index (CMII), Table 8
  ranking of CR mimicry among tested ingredients: lowest degree of CR mimicry
[5]
  CR mimicry, Gpd2 (fold change as percentage of the fold change in the CR group): 5%
  CR mimicry, Slc2a4 (fold change as percentage of the fold change in the CR group): 35%
[6]
  No. of genes significantly changed: 2

## Oc1ccc(C=Cc2cc(O)cc(O)c2)cc1 [Resveratrol, resveratrol]
  Avg. CRMI: 35
  CMII: 1.38
[4]
  Avg. mimicry: 34%
[5]
  CR mimicry, Acaca (fold change as percentage of the fold change in the CR group): 8%
  CR mimicry, Gpd2 (fold change as percentage of the fold change in the CR group): 10%
  CR mimicry, Nampt (fold change as percentage of the fold change in the CR group): 65%
  CR mimicry, Serpine1 (fold change as percentage of the fold change in the CR group): 55%
[6]
  No. of genes significantly changed: 4
